Measurements as given in PubChem BioAssay (NCI).
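Tested at 5 concentrations; 48 h exposure; 96-well plates; endpoints linearly interpolated, else capped at highest concentration. GI50 = concentration required for 50% inhibition of growth. TGI marks complete inhibition of growth.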

How the values were obtained:
Experiment in all cases: growth of human tumour cells (NCI), 48 h
786-0 renal = tested on: 786-0 renal
A498 renal = tested on: A498 renal
A549 NSCLC = tested on: A549 NSCLC
ACHN renal = tested on: ACHN renal
BT-549 breast = tested on: BT-549 breast
CAKI-1 renal = tested on: CAKI-1 renal
CCRF-CEM leukemia = tested on: CCRF-CEM leukemia
COLO 205 colon = tested on: COLO 205 colon
DU-145 prostate = tested on: DU-145 prostate
HCC-2998 colon = tested on: HCC-2998 colon
HCT-116 colon = tested on: HCT-116 colon
HCT-15 colon = tested on: HCT-15 colon
HL-60(TB) leukemia = tested on: HL-60(TB) leukemia
HOP-62 NSCLC = tested on: HOP-62 NSCLC
HS 578T breast = tested on: HS 578T breast
HT29 colon = tested on: HT29 colon
IGROV1 ovarian = tested on: IGROV1 ovarian
K-562 leukemia = tested on: K-562 leukemia
KM12 colon = tested on: KM12 colon
LOX IMVI melanoma = tested on: LOX IMVI melanoma
M14 melanoma = tested on: M14 melanoma
MALME-3M melanoma = tested on: MALME-3M melanoma
MCF7 breast = tested on: MCF7 breast
MDA-MB-231 breast = tested on: MDA-MB-231 breast
MOLT-4 leukemia = tested on: MOLT-4 leukemia
NCI-H226 lung = tested on: NCI-H226 lung
NCI-H23 lung = tested on: NCI-H23 lung
NCI-H460 lung = tested on: NCI-H460 lung
NCI-H522 lung = tested on: NCI-H522 lung
NCI/ADR-RES ovarian = tested on: NCI/ADR-RES ovarian
OVCAR-3 ovarian = tested on: OVCAR-3 ovarian
OVCAR-4 ovarian = tested on: OVCAR-4 ovarian
OVCAR-5 ovarian = tested on: OVCAR-5 ovarian
OVCAR-8 ovarian = tested on: OVCAR-8 ovarian
PC-3 prostate = tested on: PC-3 prostate
RPMI-8226 leukemia = tested on: RPMI-8226 leukemia
RXF 393 renal = tested on: RXF 393 renal
SF-268 CNS = tested on: SF-268 CNS
SF-295 CNS = tested on: SF-295 CNS
SF-539 CNS = tested on: SF-539 CNS
SK-MEL-2 melanoma = tested on: SK-MEL-2 melanoma
SK-MEL-28 melanoma = tested on: SK-MEL-28 melanoma
SK-MEL-5 melanoma = tested on: SK-MEL-5 melanoma
SK-OV-3 ovarian = tested on: SK-OV-3 ovarian
SN12C renal = tested on: SN12C renal
SNB-19 CNS = tested on: SNB-19 CNS
SNB-75 CNS = tested on: SNB-75 CNS
SR leukemia = tested on: SR leukemia
SW-620 colon = tested on: SW-620 colon
T-47D breast = tested on: T-47D breast
TK-10 renal = tested on: TK-10 renal
U251 CNS = tested on: U251 CNS
UACC-257 melanoma = tested on: UACC-257 melanoma
UACC-62 melanoma = tested on: UACC-62 melanoma
UO-31 renal = tested on: UO-31 renal

Question: Which GI50 (786-0 renal) does the source give for COc1ccc(-c2cc3nccn3c(Nc3ncccc3C(N)=O)n2)cc1OC here?
Answer: 2.42 µM

Question: What about the TGI (786-0 renal) of the same compound?
Answer: > 100 µM

Question: What about the GI50 (A498 renal) of the same compound?
Answer: 0.456 µM

Question: What about the TGI (A498 renal) of the same compound?
Answer: > 100 µM

Question: And the GI50 (A549 NSCLC)?
Answer: 3 µM

Question: What about the TGI (A549 NSCLC) of the same compound?
Answer: > 100 µM

Question: What about the GI50 (ACHN renal) of the same compound?
Answer: 0.445 µM

Question: What about the TGI (ACHN renal) of the same compound?
Answer: > 100 µM

Question: What about the GI50 (BT-549 breast) of the same compound?
Answer: 0.886 µM

Question: And the TGI (BT-549 breast)?
Answer: > 100 µM

Question: What about the GI50 (CAKI-1 renal) of the same compound?
Answer: 0.274 µM

Question: What about the TGI (CAKI-1 renal) of the same compound?
Answer: > 100 µM

Question: What about the GI50 (CCRF-CEM leukemia) of the same compound?
Answer: 0.827 µM

Question: And the TGI (CCRF-CEM leukemia)?
Answer: > 100 µM

Question: What about the GI50 (COLO 205 colon) of the same compound?
Answer: 1.21 µM

Question: And the TGI (COLO 205 colon)?
Answer: > 100 µM

Question: What about the GI50 (DU-145 prostate) of the same compound?
Answer: 2 µM

Question: What about the TGI (DU-145 prostate) of the same compound?
Answer: > 100 µM

Question: And the GI50 (HCC-2998 colon)?
Answer: > 100 µM

Question: What about the TGI (HCC-2998 colon) of the same compound?
Answer: > 100 µM

Question: And the GI50 (HCT-116 colon)?
Answer: 0.516 µM

Question: What about the TGI (HCT-116 colon) of the same compound?
Answer: > 47.4 µM

Question: And the GI50 (HCT-15 colon)?
Answer: 0.659 µM

Question: What about the TGI (HCT-15 colon) of the same compound?
Answer: > 100 µM

Question: What about the GI50 (HL-60(TB) leukemia) of the same compound?
Answer: 2.13 µM

Question: And the TGI (HL-60(TB) leukemia)?
Answer: 24.2 µM

Question: What about the GI50 (HOP-62 NSCLC) of the same compound?
Answer: 3.18 µM

Question: What about the TGI (HOP-62 NSCLC) of the same compound?
Answer: > 100 µM

Question: What about the GI50 (HS 578T breast) of the same compound?
Answer: > 31.8 µM

Question: And the TGI (HS 578T breast)?
Answer: > 100 µM

Question: What about the GI50 (HT29 colon) of the same compound?
Answer: 1.19 µM

Question: What about the TGI (HT29 colon) of the same compound?
Answer: > 100 µM

Question: What about the GI50 (IGROV1 ovarian) of the same compound?
Answer: 0.472 µM

Question: And the TGI (IGROV1 ovarian)?
Answer: 6.19 µM

Question: And the GI50 (K-562 leukemia)?
Answer: 4.59 µM

Question: And the TGI (K-562 leukemia)?
Answer: > 100 µM

Question: And the GI50 (KM12 colon)?
Answer: 2.62 µM

Question: And the TGI (KM12 colon)?
Answer: 27.3 µM

Question: What about the GI50 (LOX IMVI melanoma) of the same compound?
Answer: 0.807 µM

Question: And the TGI (LOX IMVI melanoma)?
Answer: > 100 µM

Question: And the GI50 (M14 melanoma)?
Answer: > 65.7 µM

Question: What about the TGI (M14 melanoma) of the same compound?
Answer: > 100 µM

Question: What about the GI50 (MALME-3M melanoma) of the same compound?
Answer: > 100 µM

Question: What about the TGI (MALME-3M melanoma) of the same compound?
Answer: > 100 µM

Question: And the GI50 (MCF7 breast)?
Answer: 1.87 µM

Question: What about the TGI (MCF7 breast) of the same compound?
Answer: > 100 µM

Question: What about the GI50 (MDA-MB-231 breast) of the same compound?
Answer: > 100 µM

Question: And the TGI (MDA-MB-231 breast)?
Answer: > 100 µM

Question: What about the GI50 (MOLT-4 leukemia) of the same compound?
Answer: 4.14 µM

Question: What about the TGI (MOLT-4 leukemia) of the same compound?
Answer: > 100 µM

Question: And the GI50 (NCI-H226 lung)?
Answer: > 100 µM

Question: What about the TGI (NCI-H226 lung) of the same compound?
Answer: > 100 µM

Question: And the GI50 (NCI-H23 lung)?
Answer: > 39.2 µM

Question: What about the TGI (NCI-H23 lung) of the same compound?
Answer: > 100 µM

Question: And the GI50 (NCI-H460 lung)?
Answer: 2.19 µM

Question: And the TGI (NCI-H460 lung)?
Answer: > 100 µM

Question: What about the GI50 (NCI-H522 lung) of the same compound?
Answer: 1.18 µM

Question: And the TGI (NCI-H522 lung)?
Answer: > 100 µM

Question: What about the GI50 (NCI/ADR-RES ovarian) of the same compound?
Answer: > 26.6 µM

Question: And the TGI (NCI/ADR-RES ovarian)?
Answer: > 100 µM

Question: What about the GI50 (OVCAR-3 ovarian) of the same compound?
Answer: > 47 µM

Question: What about the TGI (OVCAR-3 ovarian) of the same compound?
Answer: > 100 µM

Question: What about the GI50 (OVCAR-4 ovarian) of the same compound?
Answer: > 100 µM

Question: What about the TGI (OVCAR-4 ovarian) of the same compound?
Answer: > 100 µM

Question: What about the GI50 (OVCAR-5 ovarian) of the same compound?
Answer: > 100 µM

Question: And the TGI (OVCAR-5 ovarian)?
Answer: > 100 µM

Question: And the GI50 (OVCAR-8 ovarian)?
Answer: 0.955 µM

Question: And the TGI (OVCAR-8 ovarian)?
Answer: > 100 µM

Question: And the GI50 (PC-3 prostate)?
Answer: > 100 µM

Question: And the TGI (PC-3 prostate)?
Answer: > 100 µM

Question: And the GI50 (RPMI-8226 leukemia)?
Answer: 2.75 µM

Question: What about the TGI (RPMI-8226 leukemia) of the same compound?
Answer: > 100 µM

Question: And the GI50 (RXF 393 renal)?
Answer: 0.613 µM

Question: What about the TGI (RXF 393 renal) of the same compound?
Answer: 18.4 µM

Question: And the GI50 (SF-268 CNS)?
Answer: 3.65 µM

Question: What about the TGI (SF-268 CNS) of the same compound?
Answer: > 100 µM

Question: What about the GI50 (SF-295 CNS) of the same compound?
Answer: > 100 µM

Question: What about the TGI (SF-295 CNS) of the same compound?
Answer: > 100 µM

Question: And the GI50 (SF-539 CNS)?
Answer: 5.86 µM

Question: What about the TGI (SF-539 CNS) of the same compound?
Answer: > 100 µM

Question: What about the GI50 (SK-MEL-2 melanoma) of the same compound?
Answer: 0.824 µM

Question: And the TGI (SK-MEL-2 melanoma)?
Answer: > 100 µM

Question: What about the GI50 (SK-MEL-28 melanoma) of the same compound?
Answer: > 100 µM

Question: And the TGI (SK-MEL-28 melanoma)?
Answer: > 100 µM

Question: What about the GI50 (SK-MEL-5 melanoma) of the same compound?
Answer: 4.87 µM

Question: And the TGI (SK-MEL-5 melanoma)?
Answer: > 100 µM

Question: And the GI50 (SK-OV-3 ovarian)?
Answer: > 100 µM

Question: What about the TGI (SK-OV-3 ovarian) of the same compound?
Answer: > 100 µM

Question: And the GI50 (SN12C renal)?
Answer: 1.05 µM

Question: What about the TGI (SN12C renal) of the same compound?
Answer: > 100 µM

Question: What about the GI50 (SNB-19 CNS) of the same compound?
Answer: > 100 µM

Question: And the TGI (SNB-19 CNS)?
Answer: > 100 µM

Question: What about the GI50 (SNB-75 CNS) of the same compound?
Answer: 1.04 µM

Question: What about the TGI (SNB-75 CNS) of the same compound?
Answer: > 100 µM

Question: What about the GI50 (SR leukemia) of the same compound?
Answer: 0.275 µM

Question: And the TGI (SR leukemia)?
Answer: 21.4 µM

Question: What about the GI50 (SW-620 colon) of the same compound?
Answer: 2.34 µM

Question: What about the TGI (SW-620 colon) of the same compound?
Answer: > 100 µM

Question: What about the GI50 (T-47D breast) of the same compound?
Answer: > 100 µM

Question: And the TGI (T-47D breast)?
Answer: > 100 µM

Question: And the GI50 (TK-10 renal)?
Answer: 0.391 µM

Question: What about the TGI (TK-10 renal) of the same compound?
Answer: > 29.8 µM

Question: What about the GI50 (U251 CNS) of the same compound?
Answer: > 100 µM

Question: What about the TGI (U251 CNS) of the same compound?
Answer: > 100 µM

Question: And the GI50 (UACC-257 melanoma)?
Answer: > 100 µM

Question: What about the TGI (UACC-257 melanoma) of the same compound?
Answer: > 100 µM

Question: And the GI50 (UACC-62 melanoma)?
Answer: 0.742 µM

Question: And the TGI (UACC-62 melanoma)?
Answer: > 100 µM

Question: What about the GI50 (UO-31 renal) of the same compound?
Answer: 0.758 µM

Question: And the TGI (UO-31 renal)?
Answer: 42.1 µM
